Assay results reported in ChEMBL document CHEMBL4715771 (Bioorg Med Chem, 2016).
Values belong to the molecule of their own block, whether it stands above or below them. Calls of active or inactive are those of the source. The rule behind the calls is not given here.

Legend:
MDA-MB-231 [1] = experiment: Antiproliferative activity against triple-negative human MDA-MB-231 cells overexpressing c-Met assessed as inhibition of cell proliferation measured after 72 hrs by MTT assay; format: functional, cell-based; settings: MDA-MB-231, 72 h
MDA-MB-468 = experiment: Antiproliferative activity against triple-negative human MDA-MB-468 cells overexpressing c-Met assessed as inhibition of cell proliferation measured after 72 hrs by MTT assay; format: functional, cell-based; settings: MDA-MB-468, 72 h
[2] = target: T1, Hepatocyte growth factor receptor (Homo sapiens, UniProt P08581); experiment: Inhibition of c-MET kinase domain (unknown origin) using Tyr6 peptide as substrate measured after 1 hr in presence of ATP by Z'-lyte kinase assay
T1 sequence (P08581 whole entry, the tested form may be a part): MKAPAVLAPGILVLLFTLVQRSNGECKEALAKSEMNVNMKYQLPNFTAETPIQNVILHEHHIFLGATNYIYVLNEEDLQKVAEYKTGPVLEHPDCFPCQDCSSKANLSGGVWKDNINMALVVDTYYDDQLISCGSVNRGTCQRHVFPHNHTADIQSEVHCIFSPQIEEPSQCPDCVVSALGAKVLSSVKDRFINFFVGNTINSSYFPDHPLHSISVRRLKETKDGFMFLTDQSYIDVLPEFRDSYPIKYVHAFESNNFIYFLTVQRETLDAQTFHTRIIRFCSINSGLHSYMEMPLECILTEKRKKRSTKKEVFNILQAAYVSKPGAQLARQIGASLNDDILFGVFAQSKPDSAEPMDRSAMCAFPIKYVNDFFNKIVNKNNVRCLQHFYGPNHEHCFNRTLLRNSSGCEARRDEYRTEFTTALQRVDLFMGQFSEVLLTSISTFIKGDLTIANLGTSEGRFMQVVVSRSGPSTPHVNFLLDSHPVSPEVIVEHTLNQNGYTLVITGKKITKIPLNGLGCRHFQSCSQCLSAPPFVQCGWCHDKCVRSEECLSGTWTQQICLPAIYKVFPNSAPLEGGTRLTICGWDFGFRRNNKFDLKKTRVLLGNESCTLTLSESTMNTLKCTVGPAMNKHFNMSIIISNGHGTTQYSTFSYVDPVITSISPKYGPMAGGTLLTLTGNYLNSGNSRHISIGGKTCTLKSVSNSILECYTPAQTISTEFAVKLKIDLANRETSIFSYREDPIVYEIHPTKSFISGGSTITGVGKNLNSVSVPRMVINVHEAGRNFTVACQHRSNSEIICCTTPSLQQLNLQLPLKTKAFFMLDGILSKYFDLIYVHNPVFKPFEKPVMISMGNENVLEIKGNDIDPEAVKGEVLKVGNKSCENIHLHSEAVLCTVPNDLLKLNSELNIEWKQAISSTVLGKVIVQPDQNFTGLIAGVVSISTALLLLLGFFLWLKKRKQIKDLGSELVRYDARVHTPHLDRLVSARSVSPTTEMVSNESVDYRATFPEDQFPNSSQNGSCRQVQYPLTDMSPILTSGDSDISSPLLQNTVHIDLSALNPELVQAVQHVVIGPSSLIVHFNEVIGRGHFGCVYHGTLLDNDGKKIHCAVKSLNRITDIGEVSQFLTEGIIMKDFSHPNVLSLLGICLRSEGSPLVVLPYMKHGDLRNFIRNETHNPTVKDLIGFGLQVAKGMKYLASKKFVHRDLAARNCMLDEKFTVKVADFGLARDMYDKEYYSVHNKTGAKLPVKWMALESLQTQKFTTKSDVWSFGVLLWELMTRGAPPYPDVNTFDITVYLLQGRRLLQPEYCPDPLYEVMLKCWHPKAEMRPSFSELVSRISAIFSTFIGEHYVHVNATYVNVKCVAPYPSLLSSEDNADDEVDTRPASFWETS

[3] = target: T1, Hepatocyte growth factor receptor; experiment: Inhibition of c-MET in human MDA-MB-231 cells assessed as downregulation of activated phosphorylated c-MET level measured after 72 hrs in presence of HGF by immunoblot analysis; format: cell-based; settings: dose 25-50 µM
[4] = target: T1, Hepatocyte growth factor receptor; experiment: Inhibition of c-MET in human MDA-MB-231 cells assessed as downregulation of activated phosphorylated c-MET level at 1 to 3 uM measured after 72 hrs in presence of HGF by immunoblot analysis; format: cell-based; settings: dose 1-3 µM
MCF-10A = experiment: Cytotoxicity against human MCF-10A cells assessed as cell death at 1 to 15 uM measured after 24 hrs by MTT assay; format: cell-based; settings: dose 1-15 µM
[5] = target: T1, Hepatocyte growth factor receptor; experiment: Inhibition of c-MET in human MDA-MB-231 cells assessed as downregulation of activated phosphorylated FAK level measured after 72 hrs in presence of HGF by immunoblot analysis; format: cell-based; settings: dose 1-3 µM
[6] = target: Epidermal growth factor receptor (Homo sapiens) (UniProt P00533); experiment: Inhibition of recombinant GST-tagged human EGFR (668 to 1210 residues) expressed in baculovirus expression system at 10 uM by TR-FRET assay relative to control
Sequence of Epidermal growth factor receptor (Homo sapiens) (P00533 whole entry, the tested form may be a part): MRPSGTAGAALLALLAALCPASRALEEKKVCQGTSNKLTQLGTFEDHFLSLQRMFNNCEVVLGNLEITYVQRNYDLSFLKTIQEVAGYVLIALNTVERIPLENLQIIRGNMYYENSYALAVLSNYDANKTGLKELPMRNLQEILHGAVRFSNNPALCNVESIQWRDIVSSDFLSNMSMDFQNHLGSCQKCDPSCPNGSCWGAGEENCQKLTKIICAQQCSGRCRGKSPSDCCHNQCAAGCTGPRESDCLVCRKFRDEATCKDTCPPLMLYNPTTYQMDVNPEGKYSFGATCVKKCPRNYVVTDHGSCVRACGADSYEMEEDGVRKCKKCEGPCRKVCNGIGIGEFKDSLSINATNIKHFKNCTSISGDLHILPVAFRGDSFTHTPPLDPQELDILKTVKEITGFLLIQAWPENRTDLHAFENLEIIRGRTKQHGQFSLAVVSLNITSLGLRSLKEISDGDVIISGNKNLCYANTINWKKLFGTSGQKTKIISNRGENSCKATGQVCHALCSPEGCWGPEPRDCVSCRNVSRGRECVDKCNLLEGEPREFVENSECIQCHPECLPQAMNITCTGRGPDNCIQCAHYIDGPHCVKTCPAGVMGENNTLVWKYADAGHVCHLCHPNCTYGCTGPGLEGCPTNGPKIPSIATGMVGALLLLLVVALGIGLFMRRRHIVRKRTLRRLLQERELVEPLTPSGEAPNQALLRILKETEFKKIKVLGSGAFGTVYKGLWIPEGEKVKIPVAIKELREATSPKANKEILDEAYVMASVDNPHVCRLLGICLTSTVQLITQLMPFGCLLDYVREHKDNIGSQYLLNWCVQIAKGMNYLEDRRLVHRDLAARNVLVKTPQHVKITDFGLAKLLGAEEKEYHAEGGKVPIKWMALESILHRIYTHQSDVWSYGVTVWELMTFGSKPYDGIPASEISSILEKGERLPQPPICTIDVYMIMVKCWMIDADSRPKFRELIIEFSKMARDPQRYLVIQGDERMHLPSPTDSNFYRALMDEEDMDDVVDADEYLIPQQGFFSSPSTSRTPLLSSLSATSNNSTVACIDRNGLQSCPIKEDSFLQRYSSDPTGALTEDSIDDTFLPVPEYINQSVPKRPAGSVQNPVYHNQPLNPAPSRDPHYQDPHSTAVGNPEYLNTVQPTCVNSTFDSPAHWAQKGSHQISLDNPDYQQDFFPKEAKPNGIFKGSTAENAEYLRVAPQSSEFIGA

[7] = target: T1, Hepatocyte growth factor receptor; experiment: Inhibition of c-MET in human MDA-MB-231 cells assessed as downregulation of activated phosphorylated MAPK level measured after 72 hrs in presence of HGF by immunoblot analysis; format: cell-based; settings: dose 1-3 µM
MDA-MB-231 [8] = experiment: Antitumor activity against GFP-tagged human MDA-MB-231 cells xenografted in athymic nude-Foxn1nu/Foxn1+ mouse assessed as the reduction in tumor growth at 10 mg/kg, ip dosed 3 times per week for 3 weeks treatment started 10 days of post inoculation digital caliper method relative to control; format: functional; settings: MDA-MB-231, ip, 504 h, read-out: TGI
[9] = target: Insulin-like growth factor 1 receptor (Homo sapiens) (UniProt P08069); experiment: Inhibition of recombinant C-terminal His-tagged human IGF1R (960 to 1397 residues) expressed in baculovirus expression system at 10 uM by TR-FRET assay relative to control
[10] = target: ALK tyrosine kinase receptor (Homo sapiens) (UniProt Q9UM73); experiment: Inhibition of recombinant GST-tagged human ALK (1058 to 1620 residues) expressed in baculovirus expression system at 10 uM by TR-FRET assay relative to control
[11] = Cytotoxicity against human MCF-10A cells assessed as reduction in cell viability at 15 uM measured after 24 hrs by MTT assay relative to control; format: cell-based; settings: read-out: INH
[12] = target: T1, Hepatocyte growth factor receptor; experiment: Inhibition of recombinant N-terminal His-tagged human MET (956 to 1390 residues) expressed in baculovirus expression system at 10 uM by TR-FRET assay relative to control
Mus musculus = experiment: Downregulation of phosphorylated c-Met level in tumor of athymic nude-Foxn1nu/Foxn1+ mouse xenografted with GFP-tagged human MDA-MB-231 cells at 10 mg/kg, ip dosed 3 times per week for 3 weeks treatment started 10 days of post inoculation by western blot analysis; format: functional, organism-based
BT-474 = experiment: Antiproliferative activity against ER-positive human BT-474 cells overexpressing HER2 assessed as inhibition of cell proliferation measured after 72 hrs by MTT assay; format: functional, cell-based; settings: BT-474, 72 h
SK-BR-3 = experiment: Antiproliferative activity against ER-deficient human SK-BR-3 cells overexpressing HER2 assessed as inhibition of cell proliferation measured after 72 hrs by MTT assay; format: functional, cell-based; settings: SK-BR-3, 72 h
[13] = target: Proto-oncogene tyrosine-protein kinase ROS (Homo sapiens) (UniProt P08922); experiment: Inhibition of recombinant GST-tagged human ROS1 (1883 to 2347 residues) expressed in baculovirus expression system at 10 uM by TR-FRET assay relative to control
T47D = experiment: Antiproliferative activity against estrogen-dependent human T47D cells assessed as inhibition of cell proliferation measured after 72 hrs by MTT assay; format: functional, cell-based
[14] = target: Receptor tyrosine-protein kinase erbB-2 (Homo sapiens) (UniProt P04626); experiment: Inhibition of recombinant His-tagged human Erbb2 (676 to 1255 residues) expressed in baculovirus expression system at 10 uM by TR-FRET assay relative to control
Sequence of Receptor tyrosine-protein kinase erbB-2 (Homo sapiens) (P04626 whole entry, the tested form may be a part): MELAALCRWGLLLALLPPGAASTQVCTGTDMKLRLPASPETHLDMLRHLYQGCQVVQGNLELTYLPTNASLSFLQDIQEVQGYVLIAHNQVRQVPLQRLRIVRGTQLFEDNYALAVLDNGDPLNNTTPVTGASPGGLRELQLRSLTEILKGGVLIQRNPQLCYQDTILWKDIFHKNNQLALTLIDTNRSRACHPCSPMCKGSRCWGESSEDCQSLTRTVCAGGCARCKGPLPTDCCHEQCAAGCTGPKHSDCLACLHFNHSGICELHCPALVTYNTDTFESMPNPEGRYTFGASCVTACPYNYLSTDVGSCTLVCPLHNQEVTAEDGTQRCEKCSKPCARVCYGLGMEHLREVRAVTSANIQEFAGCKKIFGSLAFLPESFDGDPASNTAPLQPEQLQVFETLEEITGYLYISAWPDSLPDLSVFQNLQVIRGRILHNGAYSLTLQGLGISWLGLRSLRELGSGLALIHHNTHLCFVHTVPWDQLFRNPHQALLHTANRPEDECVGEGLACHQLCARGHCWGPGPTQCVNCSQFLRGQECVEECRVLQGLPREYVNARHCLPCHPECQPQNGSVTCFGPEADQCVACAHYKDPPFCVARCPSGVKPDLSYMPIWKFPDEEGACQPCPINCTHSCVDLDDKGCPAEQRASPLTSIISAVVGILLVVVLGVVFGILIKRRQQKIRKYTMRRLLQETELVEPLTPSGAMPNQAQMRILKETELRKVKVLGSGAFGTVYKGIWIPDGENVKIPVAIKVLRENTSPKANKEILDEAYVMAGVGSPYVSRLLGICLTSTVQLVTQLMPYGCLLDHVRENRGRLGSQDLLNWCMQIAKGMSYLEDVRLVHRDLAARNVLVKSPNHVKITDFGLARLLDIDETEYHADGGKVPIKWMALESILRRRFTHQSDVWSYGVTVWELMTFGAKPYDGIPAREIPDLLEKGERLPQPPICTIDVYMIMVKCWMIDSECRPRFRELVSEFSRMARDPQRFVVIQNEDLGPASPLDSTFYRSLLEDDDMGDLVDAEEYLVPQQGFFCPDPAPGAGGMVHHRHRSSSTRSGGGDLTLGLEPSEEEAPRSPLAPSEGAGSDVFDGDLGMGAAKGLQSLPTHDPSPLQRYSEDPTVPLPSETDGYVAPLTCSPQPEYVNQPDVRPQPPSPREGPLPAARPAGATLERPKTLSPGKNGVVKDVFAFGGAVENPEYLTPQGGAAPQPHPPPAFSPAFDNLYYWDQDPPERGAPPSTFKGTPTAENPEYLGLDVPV

[15] = Toxicity in athymic nude-Foxn1nu/Foxn1+ mouse assessed as effect on body weight at 10 mg/kg, ip dosed 3 times per week for 3 weeks treatment started 10 days of post inoculation; format: organism-based; settings: in vivo, 504 h
[16] = target: Fibroblast growth factor receptor 1 (Homo sapiens) (UniProt P11362); experiment: Inhibition of recombinant His-tagged human FGFR1 (308 to 731 residues) expressed in baculovirus expression system at 10 uM by TR-FRET assay relative to control
MCF7 = experiment: Antiproliferative activity against estrogen-dependent human MCF7 cells assessed as inhibition of cell proliferation measured after 72 hrs by MTT assay; format: functional, cell-based; settings: MCF7, 72 h
[17] = target: T1, Hepatocyte growth factor receptor; experiment: Inhibition of c-MET in human MDA-MB-231 cells assessed as downregulation of activated phosphorylated Akt level measured after 72 hrs in presence of HGF by immunoblot analysis; format: cell-based; settings: dose 1-3 µM
[18] = target: T1, Hepatocyte growth factor receptor; experiment: Inhibition of c-MET in human MDA-MB-231 cells assessed as downregulation of activated phosphorylated paxillin level measured after 72 hrs in presence of HGF by immunoblot analysis; format: cell-based; settings: dose 1-3 µM
[19] = target: Macrophage-stimulating protein receptor (Homo sapiens) (UniProt Q04912); experiment: Inhibition of recombinant GST-tagged human RON (983 to 1440 residues) expressed in baculovirus expression system at 10 uM by TR-FRET assay relative to control
MDA-MB-231 [20] = experiment: cells; settings: Homo sapiens, MDA-MB-231, 23 h
MDA-MB-231 [21] = experiment: Antiinvasive activity against human MDA-MB-231 cells overexpressing c-Met assessed as inhibition of cell invasion at 2 uM measured after 24 hrs by Calcein AM dye based fluorescence assay; format: functional
[22] = target: T1, Hepatocyte growth factor receptor; experiment: Inhibition of c-MET in human MDA-MB-231 cells assessed as downregulation of activated phosphorylated mTOR level measured after 72 hrs in presence of HGF by immunoblot analysis; format: cell-based; settings: dose 1-3 µM
[23] = target: Tyrosine-protein kinase ABL1 (Homo sapiens) (UniProt P00519); experiment: Inhibition of recombinant full length His-tagged human ABL1 expressed in baculovirus expression system at 10 uM by TR-FRET assay relative to control
[24] = target: Tyrosine-protein kinase receptor UFO (Homo sapiens) (UniProt P30530); experiment: Inhibition of recombinant His-tagged human AXL (473 to end residues) expressed in insect cells at 10 uM by TR-FRET assay relative to control
Sequence of Tyrosine-protein kinase receptor UFO (Homo sapiens) (P30530 whole entry): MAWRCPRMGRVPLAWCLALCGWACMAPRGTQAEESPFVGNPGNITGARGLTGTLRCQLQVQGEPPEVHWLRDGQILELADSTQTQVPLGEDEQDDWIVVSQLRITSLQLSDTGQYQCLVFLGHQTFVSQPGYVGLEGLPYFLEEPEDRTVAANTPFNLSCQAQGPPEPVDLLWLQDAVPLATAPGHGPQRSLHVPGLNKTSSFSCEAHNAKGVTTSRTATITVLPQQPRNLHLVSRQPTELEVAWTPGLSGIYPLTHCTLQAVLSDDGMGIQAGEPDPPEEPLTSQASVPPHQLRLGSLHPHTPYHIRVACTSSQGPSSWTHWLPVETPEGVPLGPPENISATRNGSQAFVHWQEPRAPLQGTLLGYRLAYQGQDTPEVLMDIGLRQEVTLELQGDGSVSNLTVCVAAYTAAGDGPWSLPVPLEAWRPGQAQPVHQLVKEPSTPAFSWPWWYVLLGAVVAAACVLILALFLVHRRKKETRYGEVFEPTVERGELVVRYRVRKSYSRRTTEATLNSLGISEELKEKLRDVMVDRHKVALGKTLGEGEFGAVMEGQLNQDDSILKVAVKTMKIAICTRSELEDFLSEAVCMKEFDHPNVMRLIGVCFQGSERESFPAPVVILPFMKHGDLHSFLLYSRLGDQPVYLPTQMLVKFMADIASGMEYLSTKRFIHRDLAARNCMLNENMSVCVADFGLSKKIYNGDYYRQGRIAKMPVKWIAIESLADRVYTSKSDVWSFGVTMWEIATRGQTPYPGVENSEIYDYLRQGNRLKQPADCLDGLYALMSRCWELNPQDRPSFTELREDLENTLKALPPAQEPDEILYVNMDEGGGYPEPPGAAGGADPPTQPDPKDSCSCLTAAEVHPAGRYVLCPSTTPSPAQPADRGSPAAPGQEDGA

MDA-MB-231 [25] = experiment: Antitumor activity against GFP-tagged human MDA-MB-231 cells xenografted in athymic nude-Foxn1nu/Foxn1+ mouse assessed as the tumor volume at 10 mg/kg, ip dosed 3 times per week for 3 weeks treatment started 10 days of post inoculation by digital caliper method (reference value: 2048 mm3); format: functional
MDA-MB-231 [26] = experiment: cells; settings: Homo sapiens, MDA-MB-231, 24 h
MDA-MB-231 [27] = experiment: Cytotoxicity against human MDA-MB-231 cells assessed as induction of necrotic cell death by measuring LDH release at 0.5 to 8 uM measured after 24 hrs by LDH release assay; format: functional, cell-based; settings: dose 0.5-8 µM

- IC50 (MDA-MB-231 [1]): 13.4 µM
- IC50 (MDA-MB-468): 12.8 µM
Compound: C/C1=C\[C@H](OC(=O)Nc2ccc(Cl)cc2)C[C@](C)(O)/C=C/[C@H](C(C)C)CC/C(C)=C/CC1

- IC50 [2]: 22.6 µM
- inhibition [3]: Dose-dependent effect
Compound: C/C1=C\[C@H](O)C[C@](C)(O)/C=C/[C@H](C(C)C)CC/C(C)=C/CC1

- IC50 (MDA-MB-231 [1]): > 50 µM
- IC50 (MDA-MB-468): > 50 µM
Compound: C/C1=C\[C@H](OC(=O)Nc2cccc3ccccc23)C[C@](C)(O)/C=C/[C@H](C(C)C)CC/C(C)=C/CC1

- IC50 (MDA-MB-231 [1]): 19.8 µM
- IC50 (MDA-MB-468): 22.7 µM
Compound: C/C1=C\[C@H](OC(=O)Nc2ccccc2)C[C@](C)(O)/C=C/[C@H](C(C)C)CC/C(C)=C/CC1

- IC50 (MDA-MB-231 [1]): > 50 µM
- IC50 (MDA-MB-468): > 50 µM
Compound: C/C1=C\[C@H](OC(=O)Nc2ccc(-c3ccccc3)cc2)C[C@](C)(O)/C=C/[C@H](C(C)C)CC/C(C)=C/CC1

- IC50 (MDA-MB-231 [1]): 10.8 µM
- IC50 (MDA-MB-468): 12.3 µM
Compound: C/C1=C\[C@H](OC(=O)Nc2c(Cl)cccc2Cl)C[C@](C)(O)/C=C/[C@H](C(C)C)CC/C(C)=C/CC1

- IC50 (MDA-MB-231 [1]): 26.3 µM
- IC50 (MDA-MB-468): 25.7 µM
Compound: CCc1ccc(NC(=O)O[C@H]2/C=C(\C)CC/C=C(\C)CC[C@@H](C(C)C)/C=C/[C@@](C)(O)C2)cc1

- IC50 (MDA-MB-231 [1]): 16.2 µM
- IC50 (MDA-MB-468): 19.5 µM
Compound: C/C1=C\[C@H](OC(=O)Nc2cccc(F)c2)C[C@](C)(O)/C=C/[C@H](C(C)C)CC/C(C)=C/CC1

- IC50 [2]: 2.9 µM
- IC50 (MDA-MB-231 [1]): 5.3 µM
- IC50 (MDA-MB-468): 6.6 µM
Compound: C/C1=C\[C@H](OC(=O)Nc2cc(Cl)cc(Cl)c2)C[C@](C)(O)/C=C/[C@H](C(C)C)CC/C(C)=C/CC1

Compound: C/C1=C\[C@H](OC(=O)Nc2cc(C(F)(F)F)cc(C(F)(F)F)c2)C[C@](C)(O)/C=C/[C@H](C(C)C)CC/C(C)=C/CC1
- IC50 [2]: 1.1 µM
- inhibition [2]: Dose-dependent effect
- inhibition [4]: Dose-dependent effect
- Activity (MCF-10A): Non-Toxic
- inhibition [5]: Dose-dependent effect
- inhibition [6]: 9%
- inhibition [7]: Dose-dependent effect
- inhibition in vivo at 10 mg/kg (MDA-MB-231 [8]): 66.7%
- inhibition [9]: 30%
- inhibition [10]: 10%
- cytotoxicity at 24 h, 15 µM [11]: 8.3%
- inhibition [12]: 84%
- inhibition (Mus musculus): Active
- IC50 (BT-474): 3.9 µM
- IC50 (SK-BR-3): 4.7 µM
- IC50 (MDA-MB-231 [1]): 1.3 µM
- inhibition [13]: 3%
- IC50 (T47D): 11.2 µM
- inhibition [14]: 22%
- Activity [15]: Non-Toxic
- inhibition [16]: 49%
- IC50 (MCF7): 7.2 µM
- inhibition [17]: Dose-dependent effect
- inhibition [18]: Dose-dependent effect
- inhibition [19]: 31%
- IC50 (MDA-MB-231 [20]): 1.4 µM
- Activity (MDA-MB-231 [21]): Active
- inhibition [22]: Dose-dependent effect
- inhibition [23]: 31%
- IC50 (MDA-MB-468): 2.1 µM
- inhibition [24]: 11%
- Activity (MDA-MB-231 [25]): 716 mm3
- IC50 (MDA-MB-231 [26]): 1.7 µM
- Activity (MDA-MB-231 [27]): Active
